Experimental data as given in US20260356856A1, “KRAS G12S AND G12C INHIBITORS” (MIRATI THERAPEUTICS, INC., priority 2023, published 2026).

Assays:
KRas G12C = target: T1, KRas G12C (Homo sapiens, UniProt P01116, G12C); experiment: KRas binding assay, TR-FRET displacement of Cy5 labelled tracer; settings: 60-minute incubation at room temperature, 1% DMSO, pH 7.5
T1 construct: Biotinylated KRas (corresponding to amino acids 1-169, produced at Accelegan Inc.); biotin (biotinylated); purchased Accelegan Inc
T1 sequence (P01116 1-169 isoform P01116-2 G12C): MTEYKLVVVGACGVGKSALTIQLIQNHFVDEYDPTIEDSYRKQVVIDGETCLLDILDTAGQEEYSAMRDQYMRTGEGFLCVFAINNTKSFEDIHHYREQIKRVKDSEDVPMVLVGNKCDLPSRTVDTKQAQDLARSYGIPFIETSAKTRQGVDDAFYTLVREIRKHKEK
Method in brief: (§1)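 IC50 came from fitting POC values with a four-parameter equation. Signal was read after one hour at room temperature. Protein was biotin-tagged KRas 1-169 captured by terbium streptavidin, with compound in 1% DMSO (final).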

KRas G12S = target: T2, KRas G12S (Homo sapiens, UniProt P01116, G12S); experiment: as above; settings: 60-minute incubation at room temperature, 1% DMSO, pH 7.5
T2 construct: Biotinylated KRas (corresponding to amino acids 1-169, produced at Accelegan Inc.); biotin (biotinylated); purchased Accelegan Inc
T2 sequence (P01116 1-169 isoform P01116-2 G12S): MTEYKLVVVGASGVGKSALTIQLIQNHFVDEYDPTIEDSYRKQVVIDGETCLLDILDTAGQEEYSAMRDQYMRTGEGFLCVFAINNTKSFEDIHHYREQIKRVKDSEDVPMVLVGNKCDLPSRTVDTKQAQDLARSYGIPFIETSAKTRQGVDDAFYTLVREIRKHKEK
Method in brief: as §1

KRas WT = target: T3, KRas WT (Homo sapiens, UniProt P01116); experiment: as above; settings: 60-minute incubation at room temperature, 1% DMSO, pH 7.5
T3 construct: Biotinylated KRas (corresponding to amino acids 1-169, produced at Accelegan Inc.); biotin (biotinylated); purchased Accelegan Inc
T3 sequence (P01116 1-169 isoform P01116-2): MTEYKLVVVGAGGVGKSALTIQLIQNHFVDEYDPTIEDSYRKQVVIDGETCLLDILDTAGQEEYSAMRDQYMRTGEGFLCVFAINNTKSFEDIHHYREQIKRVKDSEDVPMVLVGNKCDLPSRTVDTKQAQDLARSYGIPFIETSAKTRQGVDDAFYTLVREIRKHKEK
Method in brief: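 Tb-streptavidin captured biotinylated KRas (1-169) in HEPES 50 mM, DTT 1 mM, MgCl2 5 mM, Tween-20 0.005% (pH 7.5), alongside tracer and compound at 1% final DMSO. One hour at RT, then read; IC50 from 4-parameter POC fit.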

[1] = target: T4, KRas-mediated phosphorylation of ERK in MKN1 cells (Homo sapiens, UniProt P01116); experiment: Inhibition of KRas-mediated phosphorylation of ERK (HTRF), MKN1 cells; assay type: cell-based; settings: MKN1 cells (KRas WT); HTRF pERK; 3 h incubation
T4 construct: pERK HTRF read-out
T4 sequence (P01116 1-188 isoform P01116-2): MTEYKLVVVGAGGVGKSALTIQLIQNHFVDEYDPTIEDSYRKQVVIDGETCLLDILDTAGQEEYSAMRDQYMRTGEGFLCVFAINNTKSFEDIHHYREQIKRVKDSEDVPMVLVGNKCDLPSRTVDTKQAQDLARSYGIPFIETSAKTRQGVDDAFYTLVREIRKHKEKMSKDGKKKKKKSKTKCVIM
Method: Inhibition of KRas Phosphorylation of ERK (HTRF) by Exemplary Compounds of Formula (Ia) or (Ib)
Cisbio HTRF Advanced pERK Assay Catalog #64AERPEH • Cells: MKN1, PSN1 • Procedure: • 1. Day 1: Seed 6,000 cells/well −25 μl/well in 384-well white solid bottom plate; RPM1_10% FBS. Incubate overnight at 37 °C/5% CO2. • 2.

[2] = target: T5, KRas-mediated phosphorylation of ERK in A549 cells (Homo sapiens, UniProt P01116, G12S); experiment: Inhibition of KRas-mediated phosphorylation of ERK (HTRF), A549 cells; assay type: cell-based; settings: HTRF pERK, 3 h incubation
T5 construct: pERK HTRF read-out
T5 sequence (P01116 1-188 isoform P01116-2 G12S): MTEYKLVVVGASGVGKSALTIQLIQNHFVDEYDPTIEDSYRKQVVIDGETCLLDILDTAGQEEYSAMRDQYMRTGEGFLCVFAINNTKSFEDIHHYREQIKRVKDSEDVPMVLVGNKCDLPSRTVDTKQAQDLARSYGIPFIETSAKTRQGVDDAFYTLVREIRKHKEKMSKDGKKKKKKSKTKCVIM

[3] = target: T6, KRas-mediated phosphorylation of ERK in H358 cells (Homo sapiens, UniProt P01116, G12C); experiment: Inhibition of KRas-mediated phosphorylation of ERK (HTRF), H358 cells; assay type: cell-based; settings: HTRF pERK, 3 h incubation
T6 construct: pERK HTRF read-out
T6 sequence (P01116 1-188 isoform P01116-2 G12C): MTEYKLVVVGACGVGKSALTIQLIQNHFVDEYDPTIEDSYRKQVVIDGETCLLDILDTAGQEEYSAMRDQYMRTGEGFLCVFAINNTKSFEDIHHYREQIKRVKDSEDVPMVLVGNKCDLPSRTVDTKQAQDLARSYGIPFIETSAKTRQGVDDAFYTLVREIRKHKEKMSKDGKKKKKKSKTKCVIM

Row | IC50 (KRas G12C) | IC50 (KRas G12S) | IC50 (KRas WT) | IC50 [1] | IC50 [2] | IC50 [3] | Structure (SMILES)
1 | 8 nM | 8 nM | 10 nM | 37 nM | 14 nM | 61 nM | CC(=O)N(C)C(=O)C1CCN(c2nc(OC[C@@]34CCCN3C[C@H](F)C4)nc3c(F)c(-c4ccc(F)c5sc(N)c(C#N)c45)c(Cl)cc23)CC1 [Example 253, N-acetyl-1-(7-(2-amino-3-cyano-7-fluorobenzo[b]thiophen-4-yl)-6-chloro-8-fluoro-2-(((2R,7aS)-2-fluorotetrahydro-1H-pyrrolizin-7a(5H)-yl)methoxy)quinazolin-4-yl)-N-methylpiperidine-4-carboxamide]
2 | 3 nM | 3 nM | 4 nM | 18 nM | 5 nM | 29 nM | CC(=O)N(C)C(=O)C1CCN(c2nc(OC[C@@]34CCCN3C[C@H](F)C4)nc3c(F)c(-c4ccc(F)c5sc(N)c(C#N)c45)c(Cl)cc23)CC1 [Example 254, N-acetyl-1-((S)-7-(2-amino-3-cyano-7-fluorobenzo[b]thiophen-4-yl)-6-chloro-8-fluoro-2-(((2R,7aS)-2-fluorotetrahydro-1H-pyrrolizin-7a(5H)-yl)methoxy)quinazolin-4-yl)-N-methylpiperidine-4-carboxamide]
3 | 14 nM | 11 nM | 14 nM | 41 nM | 28 nM | 29 nM | CC(=O)N(C)C(=O)C1CCCN(c2nc(OC[C@@]34CCCN3C[C@H](F)C4)nc3c(F)c(-c4ccc(F)c5sc(N)c(C#N)c45)c(Cl)cc23)CC1 (stereo partly drawn) [Example 255, N-acetyl-1-(7-(2-amino-3-cyano-7-fluorobenzo[b]thiophen-4-yl)-6-chloro-8-fluoro-2-(((2R,7aS)-2-fluorotetrahydro-1H-pyrrolizin-7a(5H)-yl)methoxy)quinazolin-4-yl)-N-methylazepane-4-carboxamide]
4 | 5 nM | 499 nM | 214 nM | 726 nM | 677 nM | 21 nM | CCc1c(F)ccc2cc(O)cc(-c3ncc4c(N5CCC(C(=O)N(C)S(C)(=O)=O)CC5)nc(OC[C@@]56CCCN5C[C@H](F)C6)nc4c3F)c12 [Example 257, 1-(7-(8-ethyl-7-fluoro-3-hydroxynaphthalen-1-yl)-8-fluoro-2-(((2R,7aS)-2-fluorotetrahydro-1H-pyrrolizin-7a(5H)-yl)methoxy)pyrido[4,3-d]pyrimidin-4-yl)-N-methyl-N-(methylsulfonyl)piperidine-4-carboxamide]
5 | 3 nM | 4 nM | 9 nM | 84 nM | 29 nM | 38 nM | CC(=O)N(C)C(=O)CCCNc1nc(OC[C@@]23CCCN2C[C@H](F)C3)nc2c(F)c(-c3ccc(F)c4sc(N)c(C#N)c34)c(Cl)cc12 [Example 258, N-acetyl-4-((7-(2-amino-3-cyano-7-fluorobenzo[b]thiophen-4-yl)-6-chloro-8-fluoro-2-(((2R,7aS)-2-fluorotetrahydro-1H-pyrrolizin-7a(5H)-yl)methoxy)quinazolin-4-yl)amino)-N-methylbutanamide]
6 | 3 nM | 3 nM | 8 nM | 125 nM | 19 nM | 80 nM | CC(=O)N(C)C(=O)CCCN(C)c1nc(OC[C@@]23CCCN2C[C@H](F)C3)nc2c(F)c(-c3ccc(F)c4sc(N)c(C#N)c34)c(Cl)cc12 [Example 259, N-acetyl-4-((7-(2-amino-3-cyano-7-fluorobenzo[b]thiophen-4-yl)-6-chloro-8-fluoro-2-(((2R,7aS)-2-fluorotetrahydro-1H-pyrrolizin-7a(5H)-yl)methoxy)quinazolin-4-yl)(methyl)amino)-N-methylbutanamide]
7 | 14 nM | 15 nM | 23 nM | 159 nM | 67 nM | 159 nM | CCc1c(F)ccc2cc(O)cc(-c3ncc4c(NCCCC(=O)N(C)C(C)=O)nc(OC[C@@]56CCCN5C[C@H](F)C6)nc4c3F)c12 [Example 261, N-acetyl-4-((7-(8-ethyl-7-fluoro-3-hydroxynaphthalen-1-yl)-8-fluoro-2-(((2R,7aS)-2-fluorotetrahydro-1H-pyrrolizin-7a(5H)-yl)methoxy)pyrido[4,3-d]pyrimidin-4-yl)amino)-N-methylbutanamide]
8 | 15 nM | 25 nM | 25 nM | 593 nM | 381 nM | 1170 nM | Cc1ccn(C(=O)CCCCNc2nc(OC[C@@]34CCCN3C[C@H](F)C4)nc3c(F)c(-c4ccc(F)c5sc(N)c(C#N)c45)c(Cl)cc23)n1 [Example 262, 2-amino-4-(6-chloro-8-fluoro-2-(((2R,7aS)-2-fluorotetrahydro-1H-pyrrolizin-7a(5H)-yl)methoxy)-4-((5-(3-methyl-1H-pyrazol-1-yl)-5-oxopentyl)amino)quinazolin-7-yl)-7-fluorobenzo[b]thiophene-3-carbonitrile]
9 | 1720 nM | 490 nM | 2130 nM | 8920 nM | 495 nM | > 10000 nM | Cc1ccn(C(=O)C2CCCN(c3nc(OC[C@@]45CCCN4C[C@H](F)C5)nc4c(F)c(-c5c(I)ccc(N)c5C#N)c(Cl)cc34)CC2)n1 (stereo partly drawn) [Example 263, 6-amino-2-(6-chloro-8-fluoro-2-(((2R,7aS)-2-fluorotetrahydro-1H-pyrrolizin-7a(5H)-yl)methoxy)-4-(4-(3-methyl-1H-pyrazole-1-carbonyl)azepan-1-yl)quinazolin-7-yl)-3-iodobenzonitrile]
10 | 170 nM | 232 nM | 732 nM | 3490 nM | 138 nM | 847 nM | CCc1cc(O)cc2cccc(-c3c(Cl)cc4c(N5CCCC(C(=O)n6ccc(C)n6)CC5)nc(OC[C@@]56CCCN5C[C@H](F)C6)nc4c3F)c12 (stereo partly drawn) [Example 264, (1-(6-chloro-7-(8-ethyl-6-hydroxynaphthalen-1-yl)-8-fluoro-2-(((2R,7aS)-2-fluorotetrahydro-1H-pyrrolizin-7a(5H)-yl)methoxy)quinazolin-4-yl)azepan-4-yl)(3-methyl-1H-pyrazol-1-yl)methanone]
11 | 3 nM | 12 nM | 35 nM | 844 nM | 271 nM | 370 nM | CN(CCCC(=O)Oc1c(F)cccc1F)c1nc(OC[C@@]23CCCN2C[C@H](F)C3)nc2c(F)c(-c3ccc(F)c4sc(N)c(C#N)c34)c(Cl)cc12 [Example 265, 2,6-difluorophenyl 4-((7-(2-amino-3-cyano-7-fluorobenzo[b]thiophen-4-yl)-6-chloro-8-fluoro-2-(((2R,7aS)-2-fluorotetrahydro-1H-pyrrolizin-7a(5H)-yl)methoxy)quinazolin-4-yl)(methyl)amino)butanoate]
12 | 5 nM | 9 nM | 10 nM | 236 nM | 410 nM | 58 nM | CN(CCCC(=O)N(C)c1cccnc1)c1nc(OC[C@@]23CCCN2C[C@H](F)C3)nc2c(F)c(-c3ccc(F)c4sc(N)c(C#N)c34)c(Cl)cc12 [Example 266, 4-((7-(2-amino-3-cyano-7-fluorobenzo[b]thiophen-4-yl)-6-chloro-8-fluoro-2-(((2R,7aS)-2-fluorotetrahydro-1H-pyrrolizin-7a(5H)-yl)methoxy)quinazolin-4-yl)(methyl)amino)-N-methyl-N-(pyridin-3-yl) butanamide]
13 | 5 nM | 8 nM | 9 nM | 354 nM | 653 nM | 230 nM | CN(CCCC(=O)N(C)c1ccncc1)c1nc(OC[C@@]23CCCN2C[C@H](F)C3)nc2c(F)c(-c3ccc(F)c4sc(N)c(C#N)c34)c(Cl)cc12 [Example 267, 4-((7-(2-amino-3-cyano-7-fluorobenzo[b]thiophen-4-yl)-6-chloro-8-fluoro-2-(((2R,7aS)-2-fluorotetrahydro-1H-pyrrolizin-7a(5H)-yl)methoxy)quinazolin-4-yl)(methyl)amino)-N-methyl-N-(pyridin-4-yl) butanamide]
14 | 5 nM | 9 nM | 11 nM | 205 nM | 266 nM | 75 nM | CN(CCCC(=O)N(C)c1ccncn1)c1nc(OC[C@@]23CCCN2C[C@H](F)C3)nc2c(F)c(-c3ccc(F)c4sc(N)c(C#N)c34)c(Cl)cc12 [Example 268, 4-((7-(2-amino-3-cyano-7-fluorobenzo[b]thiophen-4-yl)-6-chloro-8-fluoro-2-(((2R,7aS)-2-fluorotetrahydro-1H-pyrrolizin-7a(5H)-yl)methoxy)quinazolin-4-yl)(methyl)amino)-N-methyl-N-(pyrimidin-4-yl) butanamide]
